Our source for the TGI and GI50 values is PubChem BioAssay (NCI).

Molecules are shown by their SMILES. Where “and” joins values, the source holds several entries; their conditions need not be identical. Identical values can stand only once.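 Dose response: 5 concentrations. Exposure: 48 h. Format: 96-well plates. Endpoint: linear interpolation; highest concentration if not reached. At the GI50, growth is halved. TGI: concentration producing complete growth inhibition.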 A value given as a limit tells only on which side of the number the result lay.

Test systems include U251 CNS; HCT-116 colon; NCI-H460 lung; SR leukemia; A549 NSCLC; EKVX NSCLC; SNB-75 CNS; COLO 205 colon; HCC-2998 colon; 786-0 renal.
Common to all, as to assay: growth of human tumour cells (NCI), 48 h

For `COC(=O)[C@@H](C)C[C@H](Cc1ccccc1)NC(=O)c1csc([C@@H](C[C@H](C(C)C)N(C)C(=O)[C@@H](NC(=O)[C@H]2CCCCN2C)c2ccc(F)cc2)OC(C)=O)n1`, the TGI was 25 µM and > 100 µM in the experiment with U251 CNS; 25 µM and > 100 µM with HCT-116 colon; 25 µM and > 100 µM in the experiment with NCI-H460 lung; 6.84 µM and 17.6 µM in the experiment with SR leukemia; 25 µM and > 100 µM with A549 NSCLC; 25 µM and > 100 µM in the experiment with EKVX NSCLC. Also, the TGI in the experiment with SNB-75 CNS is 17.6 µM and 61.3 µM; with COLO 205 colon it was 0.127 µM and 0.526 µM; in the experiment with HCC-2998 colon, 25 µM and > 100 µM; in the experiment on 786-0 renal, 6.23 µM and 42.5 µM. Further, the GI50 with SR leukemia was 0.00065 µM and 0.0025 µM; in the experiment on COLO 205 colon, 0.0113 µM and 0.0379 µM.
`O=C(Nc1ccc(Cl)cc1)c1cc(NCc2cc(O)ccc2O)ccc1O`: the GI50 with U251 CNS was 3.96 µM; in the experiment on HCT-116 colon, 3.48 µM; in the experiment with NCI-H460 lung it was 13.3 µM; in the experiment on SR leukemia it was 3.84 µM; in the experiment with A549 NSCLC, 18.4 µM; in the experiment with EKVX NSCLC, 5.5 µM. Besides, the GI50 is 1.99 µM in the experiment with SNB-75 CNS, 5.29 µM in the experiment on COLO 205 colon, 7.7 µM in the experiment on HCC-2998 colon and 6.17 µM with 786-0 renal. For the same molecule, the TGI was 13.4 µM with U251 CNS; 18.2 µM in the experiment on HCT-116 colon; 33.2 µM in the experiment with NCI-H460 lung; greater than 100 µM with SR leukemia; 44 µM in the experiment on A549 NSCLC; 23.7 µM with EKVX NSCLC. Besides, the TGI is 8.99 µM in the experiment with SNB-75 CNS, 28.5 µM in the experiment with COLO 205 colon, 21.4 µM in the experiment with HCC-2998 colon and 19.6 µM with 786-0 renal.
As to `O=[N+]([O-])c1cc(I)cc(/C=N/NS(=O)(=O)c2ccc(F)cc2)c1O`, the TGI was 59.9 µM with U251 CNS; 43.3 µM in the experiment on HCT-116 colon; 44 µM with NCI-H460 lung; 46.2 µM in the experiment with SR leukemia; greater than 100 µM in the experiment on A549 NSCLC; 92.9 µM in the experiment with EKVX NSCLC. The TGI is 66.3 µM in the experiment with SNB-75 CNS, 32.4 µM with COLO 205 colon, greater than 100 µM in the experiment with HCC-2998 colon and 82.9 µM with 786-0 renal.
As to `COc1ccc2c(c1)C(=O)/C(=C/c1ccc(O)cc1)O2`, the GI50 in the experiment with U251 CNS is 14.1 µM; with HCT-116 colon, 4.42 µM; in the experiment on NCI-H460 lung it was 20.3 µM; in the experiment on SR leukemia, 1.79 µM; in the experiment with A549 NSCLC, 25.7 µM; in the experiment with EKVX NSCLC, 18.6 µM. Moreover, the GI50 is 8.82 µM in the experiment on SNB-75 CNS, 2.77 µM in the experiment on COLO 205 colon, 17.3 µM in the experiment with HCC-2998 colon and 17.9 µM with 786-0 renal. Besides, the TGI in the experiment with U251 CNS was 27.2 µM; with HCT-116 colon, 18.2 µM; in the experiment with NCI-H460 lung, 50.3 µM; in the experiment on SR leukemia, 4.71 µM; in the experiment with A549 NSCLC, 67.5 µM; in the experiment with EKVX NSCLC, greater than 53.5 µM. Further, the TGI in the experiment on SNB-75 CNS was greater than 32.3 µM; with COLO 205 colon it was 8.97 µM; with HCC-2998 colon, 33.6 µM; with 786-0 renal, 41.4 µM.
Turning to `CCCCCCCC(=O)Nc1nc2[nH]c(CN3CCN(Cc4cccc(I)c4)CC3)c(CN3CCN(Cc4cccc(I)c4)CC3)c2c(=O)[nH]1`, the GI50 in the experiment on U251 CNS was 0.923 µM; in the experiment on HCT-116 colon, 0.848 µM; in the experiment on NCI-H460 lung, 0.925 µM; in the experiment on SR leukemia it was 0.238 µM; with A549 NSCLC, 0.989 µM; with EKVX NSCLC, 0.835 µM. Also, the GI50 in the experiment with SNB-75 CNS was 0.691 µM; with COLO 205 colon it was 0.972 µM; in the experiment on HCC-2998 colon it was 0.823 µM; with 786-0 renal, 0.793 µM. Also, the TGI with U251 CNS is 1.8 µM; with HCT-116 colon, 1.59 µM; in the experiment with NCI-H460 lung, 1.76 µM; in the experiment with SR leukemia, 1.06 µM; with A549 NSCLC, 1.91 µM; in the experiment on EKVX NSCLC, 1.67 µM. The TGI worked out at 1.35 µM in the experiment with SNB-75 CNS, 1.97 µM with COLO 205 colon, 1.54 µM in the experiment with HCC-2998 colon and 1.5 µM in the experiment with 786-0 renal.
`Cc1cc2[nH]c(=O)c3c4ncccc4cn3c2cc1C`: the GI50 was 2.67 µM in the experiment with U251 CNS; 1.92 µM in the experiment with HCT-116 colon; 2.17 µM in the experiment with NCI-H460 lung; 2.17 µM in the experiment with SR leukemia; 4.82 µM in the experiment with A549 NSCLC; greater than 100 µM with EKVX NSCLC. In addition, the GI50 in the experiment on SNB-75 CNS was 3.3 µM; with HCC-2998 colon, 2.59 µM; with 786-0 renal, 3.06 µM. The TGI is 9.18 µM in the experiment on U251 CNS; 4.53 µM with HCT-116 colon; 6.2 µM with NCI-H460 lung; 6.16 µM in the experiment with SR leukemia; greater than 100 µM in the experiment with A549 NSCLC; greater than 100 µM with EKVX NSCLC. In addition, the results for the TGI with SNB-75 CNS, in the experiment with HCC-2998 colon and with 786-0 renal were 15.7 µM, 7.97 µM and 8.42 µM, respectively.
As to `CN1C(c2ccccc2)CC(=NO)CC1c1ccccc1` (stereo not given), the TGI is greater than 100 µM in the experiment on U251 CNS; 33.6 µM in the experiment with HCT-116 colon; greater than 100 µM in the experiment on NCI-H460 lung; > 100 µM and 80.1 µM in the experiment with SR leukemia; greater than 100 µM in the experiment with A549 NSCLC; greater than 100 µM with EKVX NSCLC. Also, the TGI is greater than 100 µM in the experiment on SNB-75 CNS; 48 µM in the experiment with COLO 205 colon; > 100 µM and 81.6 µM in the experiment with HCC-2998 colon; greater than 100 µM in the experiment on 786-0 renal. Besides, the GI50 with HCT-116 colon was 33.9 µM; in the experiment on NCI-H460 lung, 41.2 µM; with SR leukemia it was 24.9 µM; in the experiment on A549 NSCLC it was 88.1 µM; in the experiment with COLO 205 colon it was 33.6 µM; in the experiment with HCC-2998 colon, 30.5 µM. In addition, in the experiment with 786-0 renal, the GI50 was 95.7 µM.
With `CSc1ccc(Cc2cc(C(C)(C)C)cc(C(C)(C)C)c2O)cc1`, the TGI with U251 CNS turned out to be 28.6 µM; in the experiment with HCT-116 colon, 22.7 µM; with NCI-H460 lung, 27.2 µM; in the experiment on SR leukemia, 24.7 µM; in the experiment with A549 NSCLC it was 27.3 µM; with EKVX NSCLC it was 32.1 µM. Moreover, the TGI was 29.7 µM in the experiment with SNB-75 CNS, 32.5 µM with HCC-2998 colon and 30.4 µM in the experiment with 786-0 renal.
`O=c1oc2ccc(F)cc2c(=O)n1-c1ccc(I)cc1F`: the GI50 in the experiment with U251 CNS is 0.469 µM; in the experiment with HCT-116 colon, 0.387 µM; with NCI-H460 lung, 0.404 µM; in the experiment on SR leukemia, 0.388 µM; with A549 NSCLC, 2.4 µM; with EKVX NSCLC it was 0.831 µM. For the same molecule, the GI50 in the experiment on SNB-75 CNS was 0.368 µM; in the experiment with COLO 205 colon, 2.67 µM; in the experiment on HCC-2998 colon, 3.1 µM; with 786-0 renal, 1.67 µM. Besides, the TGI in the experiment on U251 CNS was greater than 100 µM; in the experiment on HCT-116 colon, 2.03 µM; in the experiment with NCI-H460 lung, 9.85 µM; with SR leukemia, 11.1 µM; with A549 NSCLC, greater than 94.7 µM; in the experiment with EKVX NSCLC, 7.27 µM. In addition, the TGI stood at 10.4 µM with SNB-75 CNS, 8.82 µM in the experiment with COLO 205 colon, 9.85 µM with HCC-2998 colon and 8.1 µM in the experiment on 786-0 renal.
For the molecule `COC(=O)CCCCCOS(=O)(=O)c1ccc(C)cc1`, the TGI in the experiment on U251 CNS, with HCT-116 colon, in the experiment on NCI-H460 lung, in the experiment with SR leukemia, in the experiment on A549 NSCLC and in the experiment with EKVX NSCLC was greater than 100 µM each time. The TGI in the experiment with SNB-75 CNS, with COLO 205 colon, with HCC-2998 colon and in the experiment with 786-0 renal was greater than 100 µM each time.
Regarding `N#Cc1c(N)c(C(=O)c2ccc3c(c2)OCCO3)n2c1CCCC2`, the GI50 is 4.07 µM with U251 CNS; 3.55 µM with HCT-116 colon; 3.19 µM in the experiment with NCI-H460 lung; 0.869 µM in the experiment on SR leukemia; 4.27 µM in the experiment on A549 NSCLC; 1.8 µM in the experiment with SNB-75 CNS. Besides, the GI50 with COLO 205 colon was 1.82 µM; with HCC-2998 colon it was 4.1 µM; in the experiment with 786-0 renal, 5.31 µM. In addition, the TGI in the experiment with U251 CNS was greater than 100 µM; in the experiment on HCT-116 colon, greater than 100 µM; in the experiment on NCI-H460 lung, greater than 100 µM; in the experiment with SR leukemia, greater than 100 µM; in the experiment on A549 NSCLC it was greater than 100 µM; with SNB-75 CNS, 7.48 µM. Also, the TGI in the experiment on COLO 205 colon is greater than 23.5 µM; in the experiment on HCC-2998 colon, greater than 93.1 µM; in the experiment with 786-0 renal it was greater than 100 µM.
On to `CC(=O)N(N=O)c1ccc(N(N=O)C(C)=O)cc1`, for which the TGI in the experiment on U251 CNS, with HCT-116 colon, in the experiment on NCI-H460 lung, in the experiment on SR leukemia, in the experiment on A549 NSCLC and in the experiment with SNB-75 CNS was greater than 100 µM throughout. Moreover, the TGI in the experiment with COLO 205 colon, in the experiment with HCC-2998 colon and with 786-0 renal was greater than 100 µM throughout.
For the molecule `CCCCCCCCCCNC(=S)OC`, the TGI was greater than 100 µM with U251 CNS; greater than 100 µM in the experiment with HCT-116 colon; greater than 100 µM in the experiment on NCI-H460 lung; 55.4 µM in the experiment with SR leukemia; greater than 100 µM in the experiment on A549 NSCLC; greater than 100 µM with EKVX NSCLC. The TGI in the experiment on SNB-75 CNS, with HCC-2998 colon and in the experiment on 786-0 renal was greater than 100 µM each time.
Regarding `Cc1ccc([N+](=O)[O-])cc1NC(=O)C(=O)Cc1nc2ccc(C(=O)c3ccccc3)cc2[nH]c1=O`, the TGI with HCT-116 colon, in the experiment on NCI-H460 lung, in the experiment with SR leukemia, in the experiment on A549 NSCLC, in the experiment with EKVX NSCLC and with SNB-75 CNS was greater than 100 µM each time. The TGI with COLO 205 colon, in the experiment on HCC-2998 colon and in the experiment on 786-0 renal was greater than 100 µM in each case.
For the molecule `O=c1cccccc1O`, the TGI in the experiment with HCT-116 colon, in the experiment with NCI-H460 lung, with SR leukemia, with A549 NSCLC, in the experiment with EKVX NSCLC and with SNB-75 CNS was greater than 100 µM throughout. The TGI in the experiment on COLO 205 colon, with HCC-2998 colon and in the experiment on 786-0 renal was greater than 100 µM in each case.
